Laboratory results published in patent US11230538B2, “Herbicides” (SYNGENTA PARTICIPATIONS AG, priority 2016, dated 2022).

Assays:
Type in all cases: in vivo
[1] = system: Zea Mays (ZEAMX); assay: B1 Pre-emergence herbicidal activity; set-up: key: 5=total damage to plant; 0=no damage to plant; conditions: pre-emergence application, Rate 1000 g/ha, evaluated after 13 days, Test 1b
In short: (§1)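 Damage was rated visually on a 0–5 scale (0 no damage, 5 total damage) 13 days after treatment. Soil-sown seeds had been sprayed one day after sowing with an aqueous acetone/water (50:50) solution containing 0.5% Tween 20, then kept in a glasshouse at 24/16 °C, 14 h light, 65% humidity.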

[2] = system: Amaranthus retroflexus (AMARE); assay: B1 Pre-emergence herbicidal activity; set-up: key: 5=total damage to plant; 0=no damage to plant; conditions: pre-emergence application, Rate 1000 g/ha, evaluated after 13 days, Test 1b
In short: as §1

[3] = system: Abutilon theophrasti (ABUTH); assay: B1 Pre-emergence herbicidal activity; conditions: pre-emergence application, Rate 1000 g/ha, evaluated after 13 days, Test 1b
Procedure: Seeds of a variety of test species were sown in standard soil in pots: Triticum aestivium (TRZAW), Avena fatua (AVEFA), Alopecurus myosuroides (ALOMY), Echinochloa crus-galli (ECHCG), Lolium perenne (LOLPE), Zea Mays (ZEAMX), Abutilon theophrasti (ABUTH), Amaranthus retroflexus (AMARE) and Setaria fabenr (SETFA). After cultivation for one day (pre-emergence) under controlled conditions in a glasshouse (at 24/16° C., day/night; 14 hours light; 65% humidity), the plants were sprayed with an aqueous spray solution derived from the formulation of the technical active ingredient in acetone I water (50:50) solution containing 0.5% Tween 20 (polyoxyethelyene sorbitan monolaurate, CAS RN 9005-64-5). The test plants were then grown in a glasshouse under controlled conditions (at 24/16° C., day/night; 14 hours light; 65% humidity) and watered twice daily. After 13 days, the test was evaluated (5=total damage to plant; 0=no damage to plant).

[4] = system: Zea Mays (ZEAMX); assay: B2 Post-emergence herbicidal activity; set-up: key: 5=total damage to plant; 0=no damage to plant; conditions: post-emergence application, Rate 1000 g/ha, evaluated after 13 days, Test 2b
In short: (§2)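 Visual damage score (0 = none, 5 = total) taken 13 days after treatment. Seedlings had been cultivated 8 days in pots of standard soil before being sprayed with an aqueous solution of compound in acetone/water (50:50) containing 0.5% Tween 20.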

[5] = system: Setaria fabenri (SETFA); assay: B2 Post-emergence herbicidal activity; set-up: key: 5=total damage to plant; 0=no damage to plant; conditions: post-emergence application, Rate 1000 g/ha, evaluated after 13 days, Test 2b
In short: as §2

[6] = system: Abutilon theophrasti (ABUTH); assay: B2 Post-emergence herbicidal activity; conditions: post-emergence application, Rate 1000 g/ha, evaluated after 13 days, Test 2b
In short: as §2

[7] = system: Amaranthus retroflexus (AMARE); assay: B2 Post-emergence herbicidal activity; conditions: post-emergence application, Rate 1000 g/ha, evaluated after 13 days, Test 2b
In short: as §2

[8] = system: Echinochloa crus-galli (ECHCG); assay: B1 Pre-emergence herbicidal activity; conditions: pre-emergence application, Rate 1000 g/ha, evaluated after 13 days, Test 1b
In short: as §1

[9] = system: Lolium perenne (LOLPE); assay: B1 Pre-emergence herbicidal activity; conditions: pre-emergence application, Rate 1000 g/ha, evaluated after 13 days, Test 1b
In short: as §1

[10] = system: Echinochloa crus-galli (ECHCG); assay: B2 Post-emergence herbicidal activity; conditions: post-emergence application, Rate 1000 g/ha, evaluated after 13 days, Test 2b
In short: as §2

[11] = system: Lolium perenne (LOLPE); assay: B2 Post-emergence herbicidal activity; conditions: post-emergence application, Rate 1000 g/ha, evaluated after 13 days, Test 2b
In short: as §2

[12] = system: Setaria fabenr (SETFA); assay: B1 Pre-emergence herbicidal activity; conditions: pre-emergence application, Rate 1000 g/ha, evaluated after 13 days, Test 1b
In short: as §1

Structure (SMILES) | ZEAMX damage score (0-5) [1] | AMARE damage score (0-5) [2] | ABUTH damage score (0-5) [3] | ZEAMX damage score (0-5) [4] | SETFA damage score (0-5) [5] | ABUTH damage score (0-5) [6] | AMARE damage score (0-5) [7] | ECHCG damage score (0-5) [8] | LOLPE damage score (0-5) [9] | ECHCG damage score (0-5) [10] | LOLPE damage score (0-5) [11] | SETFA damage score (0-5) [12]
CC(=O)Nc1ccc(-c2cncc(F)c2)nc1C(F)(F)F [Compound C9, N-[6-(5-fluoro-3-pyridyl)-2-(trifluoromethyl)-3-pyridyl]acetamide] | 5 | 2 | 1 | 5 | 5 | 2 | 2 | 3 | 2 | 4 | 3 | 4
CC(C)C(=O)Nc1ccc(-c2cncc(F)c2)nc1C(F)(F)F [Compound C10, N-[6-(5-fluoro-3-pyridyl)-2-(trifluoromethyl)-3-pyridyl]-2-methyl-propanamide] | 5 | 0 | 1 | 5 | 4 | 1 | 1 | 4 | 2 | 4 | 3 | 4
